This is an account of results in patent US9440930B2, “Substituted bicyclic dihydropyrimidinones and their use as inhibitors of neutrophil elastase activity” (Boehringer Ingelheim International GmbH, priority 2014, dated 2016).

Converted amounts (≈) assume the structure as drawn.

One data set addresses T1, cytochrome P450 2C19 (Homo sapiens, UniProt P33261).
T1 construct: is assayed at 37° C. with human liver microsomes; from tissue; host or cells: human liver microsomes
Nature of the data set: Cytochrome P450 2C19 inhibition. It is filed as in vitro ADME. To be noted: human liver microsomes, (S)-Mephenytoin hydroxylation. The source says: Assay for Determination of Cytochrome P450 2C19 Inhibition
In general terms: Liver microsomes are vesicles of endoplasmic reticulum, rich in cytochrome P450 enzymes.

A further data set can be described thus: Aqueous solubility. It is filed as physicochemical. To be noted: McIlvaine buffer pH 6.8 containing 2.5% DMSO, kinetic from dmso stock, McIlvaine buffer pH 6.8, 2.5% DMSO, 24 h shaking. How it is done:
Assay for Determination of Aqueous Solubility
Starting from a 10 min DMSO stock solution, aliquots are diluted with acetonitrile/water (1/1) and McIlvaine buffer pH 6.8, respectively. After 24 h of shaking, the solutions or suspensions are filtered and analyzed by LC-UV. The amount dissolved in buffer is compared to the amount dissolved in the acetonitrile/water (1/1) solution. Solubility is measured from 0.001 to 0.125 mg/ml at a DMSO concentration of 2.5%. If more than 90% of the compound is dissolved in buffer, the value is marked with “>”.

Data set [1] in a line: Metabolic stability with human liver microsomes. The data set is classed as in vitro ADME. The note with it: pooled human liver microsomes, pH 7.6; human liver microsomes 1 mg/ml, 1 μM compound, 37° C., NADPH; read-out: t1/2 INVITRO.
For data set [2], the target named is hERG (human ether-a-go-go-related gene) potassium channel (Homo sapiens, UniProt Q12809). Nature of the data set: hERG inhibition. The data set is classed as cell-based. For orientation: hERG is a cardiac potassium channel; its block is linked to QT prolongation.
hERG (human ether-a-go-go-related gene) potassium channel, sequence (Q12809 whole entry): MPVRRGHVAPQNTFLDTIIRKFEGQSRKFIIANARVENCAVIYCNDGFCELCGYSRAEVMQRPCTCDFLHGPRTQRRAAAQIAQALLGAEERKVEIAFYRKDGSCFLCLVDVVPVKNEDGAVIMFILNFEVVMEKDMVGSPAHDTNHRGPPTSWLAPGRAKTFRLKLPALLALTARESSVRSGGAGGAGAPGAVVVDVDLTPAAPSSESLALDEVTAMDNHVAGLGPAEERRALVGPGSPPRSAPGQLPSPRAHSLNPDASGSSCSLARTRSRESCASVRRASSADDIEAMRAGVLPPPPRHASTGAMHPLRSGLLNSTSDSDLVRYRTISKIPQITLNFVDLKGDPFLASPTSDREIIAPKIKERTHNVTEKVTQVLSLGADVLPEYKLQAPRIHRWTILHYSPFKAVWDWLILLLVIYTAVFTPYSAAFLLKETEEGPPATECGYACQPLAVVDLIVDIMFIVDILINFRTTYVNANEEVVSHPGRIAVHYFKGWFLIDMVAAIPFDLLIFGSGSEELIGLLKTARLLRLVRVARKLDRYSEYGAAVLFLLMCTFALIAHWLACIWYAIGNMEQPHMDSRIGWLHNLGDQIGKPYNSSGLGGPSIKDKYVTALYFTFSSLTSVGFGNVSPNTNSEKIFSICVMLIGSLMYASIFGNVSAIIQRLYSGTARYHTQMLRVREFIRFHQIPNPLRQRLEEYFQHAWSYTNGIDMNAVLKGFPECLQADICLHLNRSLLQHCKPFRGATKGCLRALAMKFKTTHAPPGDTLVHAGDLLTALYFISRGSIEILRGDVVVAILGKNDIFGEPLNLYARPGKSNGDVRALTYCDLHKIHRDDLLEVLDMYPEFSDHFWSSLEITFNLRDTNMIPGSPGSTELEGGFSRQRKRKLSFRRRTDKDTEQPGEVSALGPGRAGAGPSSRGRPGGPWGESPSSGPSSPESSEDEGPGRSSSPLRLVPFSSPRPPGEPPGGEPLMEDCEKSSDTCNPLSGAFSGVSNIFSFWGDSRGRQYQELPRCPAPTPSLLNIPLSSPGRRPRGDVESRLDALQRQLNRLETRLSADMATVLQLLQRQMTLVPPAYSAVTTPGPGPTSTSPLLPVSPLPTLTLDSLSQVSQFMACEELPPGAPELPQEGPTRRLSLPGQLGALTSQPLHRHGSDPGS
The next data set deals with hERG potassium channel (Homo sapiens, UniProt Q12809). Nature of the data set: hERG inhibition. The data set is classed as cell-based. To be noted: human; at 10 μM.
hERG potassium channel, sequence (Q12809 whole entry): as above
In the next data set the test system is human hepatocytes. Nature of the data set: Metabolic stability with human hepatocytes. The data set is classed as in vitro ADME. To be noted: human hepatocyte suspension, 1 μM compound, well stirred model. As for the experimental part: Assay for the Determination of Metabolic Stability with Human Hepatocytes
The metabolic degradation of the test compound is assayed in a human hepatocyte suspension. Human hepatocytes (typically cryopreserved) are incubated in an appropriate buffer system (e.g. Dulbecco's modified eagle medium plus 3.5 μg glucagon/500 mL, 2.5 mg insulin/500 mL and 3.75 mg/500 mL hydrocortison) containing 5% species serum. Following a (typically) 30 min preincubation in an incubator (37° C., 10% CO2), 5 μl of test compound solution (80 μM; from 2 min stock solution in DMSO diluted 1:25 with medium) are added into 395 μl hepatocyte suspension (cell density in the range 0.25-5*10^6 cells/mL, typically 1*10^6 cells/mL; final concentration of test compound 1 μM, final DMSO concentration 0.05%). The cells are incubated for six hours (incubator, orbital shaker) and samples (25 μl) are taken at 0, 0.5, 1, 2, 4 and 6 hours. Samples are transferred into acetonitrile and pelleted by centrifugation (5 min). The supernatant is transferred to a new 96-deepwell plate, evaporated under nitrogen and resuspended. The decline of parent compound is analyzed by LC-MS/MS. […]

The next data set has as its target T2, cytochrome P450 2C8 (Homo sapiens, UniProt P10632).
T2 construct: is assayed at 37° C. with human liver microsomes; from tissue; host or cells: human liver microsomes
T2 sequence (P10632 1-490): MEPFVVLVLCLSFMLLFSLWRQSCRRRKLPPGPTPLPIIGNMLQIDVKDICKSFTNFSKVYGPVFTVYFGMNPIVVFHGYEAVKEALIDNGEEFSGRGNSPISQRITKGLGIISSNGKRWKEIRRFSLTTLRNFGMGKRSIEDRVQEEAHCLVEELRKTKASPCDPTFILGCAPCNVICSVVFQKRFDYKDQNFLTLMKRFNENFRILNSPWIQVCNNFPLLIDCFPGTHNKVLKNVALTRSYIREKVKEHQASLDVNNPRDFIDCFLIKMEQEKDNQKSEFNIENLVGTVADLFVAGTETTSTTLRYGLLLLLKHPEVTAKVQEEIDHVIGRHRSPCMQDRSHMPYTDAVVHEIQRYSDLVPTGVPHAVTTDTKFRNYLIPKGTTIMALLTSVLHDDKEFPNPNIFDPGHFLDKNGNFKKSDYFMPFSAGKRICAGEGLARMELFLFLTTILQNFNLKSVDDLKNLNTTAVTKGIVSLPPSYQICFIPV
Nature of the data set: Cytochrome P450 2C8 inhibition. The data set is classed as in vitro ADME. The note with it: human liver microsomes, Amodiaquine deethylation. The source says: Assay for Determination of Cytochrome P450 2C8 Inhibition

T1 sequence (P33261 whole entry): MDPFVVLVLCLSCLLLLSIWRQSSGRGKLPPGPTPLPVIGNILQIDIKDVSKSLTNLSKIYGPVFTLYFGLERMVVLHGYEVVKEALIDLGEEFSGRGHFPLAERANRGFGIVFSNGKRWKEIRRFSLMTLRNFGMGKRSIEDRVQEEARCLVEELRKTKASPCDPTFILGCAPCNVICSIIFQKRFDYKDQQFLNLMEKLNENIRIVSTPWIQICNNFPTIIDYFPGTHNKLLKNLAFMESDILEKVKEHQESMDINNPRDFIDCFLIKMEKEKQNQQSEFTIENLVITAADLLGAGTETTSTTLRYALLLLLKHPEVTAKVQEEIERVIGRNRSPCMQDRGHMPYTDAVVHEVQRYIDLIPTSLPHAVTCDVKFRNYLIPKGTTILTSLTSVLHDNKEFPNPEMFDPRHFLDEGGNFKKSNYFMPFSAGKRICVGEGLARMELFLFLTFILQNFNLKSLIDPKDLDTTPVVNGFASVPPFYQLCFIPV

For `CN1C(=O)N(c2cccc(C(F)(F)F)c2)C2=C(C(=O)CCC2)[C@H]1c1ccc(C#N)cc1[S+](C)[O-]` (single isomer, unassigned) [Example 2.2A, 3-Methanesulfinyl-4-[3-methyl-2,5-dioxo-1-(3-trifluoromethyl-phenyl)-1,2,3,4,5,6,7,8-octahydro-quinazolin-4-yl]-benzonitrile], the IC50 – broadly, the concentration needed to halve the response being measured – against cytochrome P450 2C19 is more than 50 µM; in data set [2] it was more than 30 µM; at cytochrome P450 2C8, more than 50 µM. In addition, the solubility (usually the dissolved amount per volume that the medium holds) at 24 h in the data set “Aqueous solubility” worked out at 55 µg/mL (≈ 113 µM). Further, the half-life at 1 μM in data set [1] is more than 2.17 h. For the same compound, the inhibition (in general, the share of the control response that was lost under treatment) at 10 µM on hERG potassium channel amounted to 9%. In the data set on human hepatocytes, the “predicted hepatic in vivo blood clearance” value is 5 % human hepatic blood flow.
